In US8785160B2, “Prebiotic formulations and methods of use” (Ritter Pharmaceuticals, Inc., priority 2009, dated 2014):

Tested on: Bifidobacterium species
Experiment: Comparative growth of Bifidobacterium species and strains on 2% carbohydrate in scratch MRS
Format: cell-based
Conditions: scratch MRS + 2% carbohydrate, 37 C

`OC[C@H]1O[C@@H](O[C@H]2[C@H](O)[C@@H](O)C(O)O[C@@H]2CO)[C@H](O)[C@@H](O)[C@H]1O` (stereo partly shown) [lactose] was tested, and the “comparative growth of Bifidobacterium species on four carbohydrate sources (glucose, lactose, GOS1, GOS2)” value was “none of the Bifidobacterium strains used in these experiments grew on lactose”.
